# Where “and” joins values, the source holds several entries; their conditions need not be identical. Equal values may be shown once. Entries after “also recorded” stand apart in the source; their conditions may differ.
# System: TLT tumor
# Set-up: species or system mice
# Settings: mouse, in vivo
smiles,measurement,setting,value
O=P1(N(CCCl)CCCl)NCCCO1 (centres unmarked) [cyclophosphamide],regrowth delay to double tumour diameter,,7.73 ± 0.38 days and 7.7 ± 0.4 days
same,effect of cyclophosphamide alone on regrowth delay,50 mg/kg,No difference in regrowth delay; also recorded: just below the efficacy threshold

# Reference: US20090232849A1 (priority 2005, published 2009)
